# Molecular target: T1, human LPA1 (Homo sapiens, UniProt Q92633)
# T1 construct: expressed in transfected cells; host or cells: CHO-K1
# Test: In vitro LPA1 calcium flux antagonist assay, Bioduro protocol
# Format: cell-based
# Conditions: CHO-K1 cells overexpressing human LPA1 and G15a; LPA challenge at EC80; calcium mobilization on FLIPR Tetra; read-out: IC50 (nM) in Assay B2
# Method: In Vitro LPA1 Calcium Flux Antagonist Assay Bioduro Protocol
# CHO-K1 cells overexpressing human LPA1 and G15a were seeded at a total volume of 20 uL (15000 cells/well) into Matrigel pre-coated 384-well plates (coming -3764) and incubated at 37° C. After overnight incubation, the cells were serum starved for 4 h. Assays were performed in dye loading buffer containing 1× Fluo-8 AM (AAT Bioquest, 21080) and 2.5 mM probenecid (Thermo Fisher, 36400) in HBSS/20 mM Hepes. After cell starvation, the medium was replaced with 20 uL of dye loading buffer and incubated at 37° C. for 30 min. Then 5 uL of 5× compound titrated in dye loading buffer was added to the cells and incubated for 30 min followed by LPA challenge at EC80. Calcium mobilization was measured on a FLIPR Tetra (MDS). For LPA EC80 determination, starved cells were incubated with 20 uL of dye loading buffer for 1 h, then 5 uL of 5×LPA titrated in dye loading buffer was added to the cells. Calcium signals induced by LPA was monitors on a FLIPR.
# Percentage inhibition is calculated using the following formula:
# % Inhibition=100%×(1−(mean RFU of test sample−mean RFU of DMSO)/(mean RFU of LPA control−mean RFU of DMSO)).
# T1 sequence (Q92633 whole entry): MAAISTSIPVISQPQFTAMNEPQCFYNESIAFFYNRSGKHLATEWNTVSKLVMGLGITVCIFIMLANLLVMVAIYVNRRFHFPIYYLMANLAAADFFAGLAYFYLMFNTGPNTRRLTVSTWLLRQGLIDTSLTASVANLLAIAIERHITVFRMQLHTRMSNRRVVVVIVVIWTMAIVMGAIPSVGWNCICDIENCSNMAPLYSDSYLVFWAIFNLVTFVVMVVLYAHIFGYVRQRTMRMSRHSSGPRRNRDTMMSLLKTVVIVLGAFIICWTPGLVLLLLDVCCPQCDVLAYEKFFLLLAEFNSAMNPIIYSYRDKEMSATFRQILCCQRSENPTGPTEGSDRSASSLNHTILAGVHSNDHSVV
row,Compound,IC50 [nM]
1,CCOc1cc(C(=O)O)c2nc(C[C@H](OC3CCCC3)[C@H](O)c3cc(OC)c(C)c(OC)c3)sc2c1 [Compound 275],1.65
2,COc1cc([C@@H](O)[C@H](Cc2nc3c(C(=O)O)cc(F)cc3s2)OC2CCCC2)cc(OC)c1C [Compound 266],7.18
3,COc1cc([C@@H](O)[C@H](Cc2cc3cc(C)cc(C(=O)O)n3n2)OCC(C)C)cc(OC)c1C [Compound 252],24.5
4,COc1cc([C@@H](O)[C@H](Cc2nc3c(C(=O)O)cc(C)cc3s2)OC2CCCC2)cc(OC)c1C [Compound 256],4.12
5,COC(=O)Cc1nc(CC(OC2CCCC2)[C@H](O)c2cc(OC)c(C)c(OC)c2)sc1C(=O)O (some centres unmarked) [Compound 210],7810
6,COc1cc([C@@H](O)[C@H](Cn2cc3cc(C)nc(C(=O)O)c3n2)OC2CCCC2)cc(OC)c1C [Compound 195],32.3
7,"COc1cc([C@@H](O)[C@H](Cc2cc3c(C(=O)O)cccc3s2)OC2CCCC2)cc(OC)c1C [Compound 265, 2-((2S,3R)-2-(cyclopentyloxy)-3-(3,5-dimethoxy-4-methylphenyl)-3-hydroxypropyl)benzo[b]thiophene-4-carboxylic acid]",22.7
8,COc1cc([C@@H](O)[C@H](Cc2nc3c(C(=O)O)cc(F)cc3s2)OCC2CCCC2)cc(OC)c1C [Compound 263],10.1
9,COc1cc([C@@H](O)[C@H](Cn2cc3cc(C#N)cc(C(=O)O)c3n2)OCC(C)C)cc(OC)c1C [Compound 232],27.2
10,"COc1cc([C@@H](O)[C@H](Cc2nc(CC(=O)O)c(C)s2)OC2CCCC2)cc(OC)c1C [Compound 177, 2-(2-((2S,3R)-2-(cyclopentyloxy)-3-(3,5-dimethoxy-4-methylphenyl)-3-hydroxypropyl)-5-methylthiazol-4-yl)acetic acid]",154
11,COc1cc([C@@H](O)[C@H](Cc2cc3cc(C(F)(F)F)cc(C(=O)O)n3n2)OC2CCCC2)cc(OC)c1C [Compound 250],17.4
12,COc1cc([C@@H](O)[C@H](Cn2cc3nccc(C(=O)O)c3n2)OC2CCCC2)ccc1C(F)F [Compound 189],454
13,COc1cc([C@@H](O)[C@H](Cn2cc3nc(Cl)cc(C(=O)O)c3n2)OC2CCCC2)cc(OC)c1C [Compound 198],6.87
14,COc1cc(C(=O)O)n2nc(C[C@H](OC3CCCC3)[C@H](O)c3cc(OC)c(C)cc3C)cc2c1 [Compound 238],53.3
15,COc1cc([C@@H](O)[C@H](Cc2nc3c(C(=O)O)cc(F)cc3s2)OCC(C)C)cc(OC)c1C [Compound 262],15.8
16,COc1cc([C@@H](O)[C@H](Cn2cc3cccc(C(=O)O)c3n2)OCC(C)C)cc(OC)c1C [Compound 146],36.8
17,CCc1cc(C(=O)O)c2nc(C[C@H](OCC(C)C)[C@H](O)c3cc(OC)c(C)c(OC)c3)sc2c1 [Compound 254],8.93
18,COc1cc([C@@H](O)[C@H](Cc2cc3cc(C)cc(C(=O)O)n3n2)OC2CCCC2)cc(OC)c1C [Compound 218],13
19,COc1cc([C@@H](O)[C@H](Cn2cc3nc(C4CC4)cc(C(=O)O)c3n2)OC2CCCC2)cc(OC)c1C [Compound 196],16.3

row,Compound,IC50 [nM]
1,COc1cc([C@@H](O)[C@H](Cn2cc3nccc(C(=O)O)c3n2)OC2CCCC2)cc(OC)c1C(F)F [Compound 215],140
2,COc1cc([C@@H](O)[C@H](Cn2cc3cc(C#N)cc(C(=O)O)c3n2)OC2CCCC2)ccc1C(F)F [Compound 225],29.3
3,CCCc1sc(C[C@H](OCC(C)C)[C@H](O)c2cc(OC)c(C)c(OC)c2)nc1C(C)C(=O)O (some centres unmarked) [Compound 267],103
4,COc1cc([C@@H](O)[C@H](Cc2cn3cccc(C(=O)O)c3n2)OC2CCCC2)cc(OC)c1C [Compound 248],≥ 10000
5,COc1cc([C@@H](O)[C@H](Cn2cc3nccc(C(=O)O)c3n2)OCCc2ccc(F)cc2)cc(OC)c1C [Compound 187],132
6,"CCOc1cc([C@@H](O)[C@H](Cc2nc3c(C(=O)O)cccc3s2)OC2CCCC2)cc(OCC)c1C#N [Compound 257, 2-((2S,3R)-3-(4-cyano-3,5-diethoxyphenyl)-2-(cyclopentyloxy)-3-hydroxypropyl) benzo [d]thiazole-4-carboxylic acid]",47.2
7,COc1cc([C@@H](O)[C@H](Cn2cc3nccc(C(=O)O)c3n2)OC2CCCC2)c(F)cc1C [Compound 190],1530
8,COc1cc([C@@H](O)[C@H](Cn2cc3ccc(C#N)c(C(=O)O)c3n2)OC2CCCC2)cc(OC)c1C [Compound 180],153
9,COc1cc([C@@H](O)[C@H](Cc2nc3c(C(=O)O)cc(C4CC4)cc3s2)OCC(C)C)cc(OC)c1C [Compound 271],2.19
10,"COc1cc([C@@H](O)[C@H](Cc2nc3c(C(=O)O)cccc3s2)OC2CCCC2)cc(OC)c1C [Compound 157, 2-((2S,3R)-2-(cyclopentyloxy)-3-(3,5-dimethoxy-4-methylphenyl)-3-hydroxypropyl)benzo[d]thiazole-4-carboxylic acid]",6.3
11,COc1cc([C@@H](O)[C@H](Cn2cc3cc(C(F)F)cc(C(=O)O)c3n2)OC2CCCC2)cc(OC)c1C [Compound 162],3.93
12,COC(=O)c1sc(C[C@H](OC2CCCC2)[C@H](O)c2cc(OC)c(C)c(OC)c2)nc1CC(=O)O [Compound 152],8.53
13,COc1cc([C@@H](O)[C@H](Cn2cc3cccc(C(=O)O)c3n2)OC2CCCC2)cc(OC)c1OC [Compound 147],126
14,CCCc1sc(C[C@H](OC2CCCC2)[C@H](O)c2cc(OC)c(C(C)=O)c(OC)c2)nc1C(C)C(=O)O (some centres unmarked) [Compound 272],71.6
15,COc1cc([C@@H](O)[C@H](Cn2cc3c(C(F)(F)F)ccc(C(=O)O)c3n2)OC2CCCC2)cc(OC)c1C [Compound 186],7640
16,CCOc1cc([C@@H](O)[C@H](Cn2cc3nccc(C(=O)O)c3n2)OC2CCCC2)cc(OCC)c1C [Compound 203],530
17,CCc1sc(C[C@H](OC2CCCC2)[C@H](O)c2cc(OC)c(C)c(OC)c2)nc1CC(=O)O [Compound 178],73.8
18,COc1cc([C@@H](O)[C@H](Cc2nc3c(C(=O)O)cc(OC)c(F)c3s2)OC2CCCC2)cc(OC)c1C [Compound 279],2.71
19,COc1cc(C(=O)O)c2nc(C[C@@H](OC3CCCC3)[C@H](O)c3cc(OC)c(C)c(OC)c3)sc2c1 [Compound 283],1760

row,Compound,IC50 [nM]
1,COc1cc(C(=O)O)c2nc(C[C@H](OC3Cc4ccccc4C3)[C@H](O)c3cc(OC)c(C)c(OC)c3)sc2c1 [Compound 274],3.71
2,"COc1cc([C@@H](O)[C@H](Cc2nc3c(C(=O)O)cc(C)cc3s2)OCC(C)C)cc(OC)c1C [Compound 234, 2-((2S,3R)-3-(3,5-dimethoxy-4-methylphenyl)-3-hydroxy-2-isobutoxypropyl)-6-methylbenzo[d]thiazole-4-carboxylic acid]",3.71
3,COc1cc(C(=O)O)n2nc(C[C@H](OC3CCCC3)[C@H](O)c3cc(OC)c(C)c(OC)c3)cc2c1 [Compound 235],40.8
4,COc1cc(C(=O)O)c2nc(C[C@H](OC3CCCC3)[C@H](O)c3cc(OC)c(C)c(OC)c3)sc2c1 [Compound 247],1.93
5,COc1cc([C@@H](O)[C@H](Cc2cn3cc(C)cc(C(=O)O)c3n2)OC2CCCC2)cc(OC)c1C [Compound 217],1300
6,COc1cc([C@@H](O)[C@H](Cc2cc3cccc(C(=O)O)n3n2)OC2Cc3ccccc3C2)cc(OC)c1C [Compound 264],5.33
7,COc1cc([C@@H](O)[C@H](Cn2cc3cc(Cl)cc(C(=O)O)c3n2)OC2CCCC2)ccc1C(F)F [Compound 173],6.09
8,COc1cc([C@@H](O)[C@H](Cc2nc3c(C(=O)O)cccc3n2C)OC2CCCC2)cc(OC)c1C [Compound 175],> 10000
9,"COc1cc([C@@H](O)[C@H](Cc2cc3cccc(C(=O)O)n3n2)OC2CCCC2)cc(OC)c1C [Compound 169, 2-((2S,3R)-2-(cyclopentyloxy)-3-(3,5-dimethoxy-4-methylphenyl)-3-hydroxypropyl)pyrazolo[1,5-a]pyridine-7-carboxylic acid]",150
10,COc1c(C)ccc([C@@H](O)[C@H](Cn2cc3nccc(C(=O)O)c3n2)OC2CCCC2)c1C [Compound 192],1120
11,COc1cc([C@@H](O)[C@H](Cc2nc3c(C(=O)O)cc(Cl)cc3s2)OC2CCCC2)cc(OC)c1C [Compound 246],1.65
12,COc1cc([C@@H](O)[C@H](Cn2cc3cc(C#N)cc(C(=O)O)c3n2)OC2CCCC2)ccc1C1CC1 [Compound 227],149
13,COc1cc([C@@H](O)[C@H](Cn2cc3nccc(C(=O)O)c3n2)OCC(C)C)cc(OC)c1C [Compound 211],459
14,COc1cc([C@@H](O)[C@H](Cc2cc3c(OC)ccc(C(=O)O)n3n2)OC2Cc3ccccc3C2)cc(OC)c1C [Compound 276],5
15,COc1cc([C@@H](O)[C@H](Cn2cc3nccc(C(=O)O)c3n2)OCCc2ccccc2)cc(OC)c1C [Compound 184],24
16,CCOc1cc([C@@H](O)[C@H](Cn2cc3nccc(C(=O)O)c3n2)OC2CCCC2)cc(OCC)c1C(C)=O [Compound 204],122
17,CCCc1sc(C[C@H](OC2CCCC2)[C@H](O)c2cc(OC)c(C)c(OC)c2)nc1CC(=O)O [Compound 179],20.3
18,COc1cc([C@@H](O)[C@H](Cn2cc3ccc(F)c(C(=O)O)c3n2)OC2CCCC2)cc(OC)c1C [Compound 155],308

# — patent US20240018102A1, “COMPOUNDS AND COMPOSITIONS FOR TREATING CONDITIONS ASSOCIATED WITH LPA RECEPTOR ACTIVITY” (Lhotse Bio, Inc., priority 2020, published 2024)
